Read-outs that look alike come from different tables or passages of the source.
What was measured:
Mcl-1 = Mcl-1 (Homo sapiens (Human), UniProt Q07820); assay: Fluorescence polarization anisotropy (FPA) competition assay, FITC-Bak or FITC-Bim BH3 peptide; assay type: binding; conditions: read-out: Ki for Inhibition of Mcl-1 by FPA assay
[1] = test system: H929 human cancer cell lines; assay: Cellular viability / proliferation (Cell TiterGlo, 72 h); assay type: cell-based
Procedure, shortened: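 Plating is at 1,000 cells/well in 10% FBS medium; after 24 h, compound is added as a 2-fold series starting at 50 μM with under 1% DMSO.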

[2] = Homo sapiens, NCI-H929, 72 h, read-out: GI50 on cellular proliferation of H929 human cancer cell lines, H929 cells, 72 h, Cell TiterGlo, 10% FBS
[3] = read-out: GI50 on cellular proliferation of H929 human cancer cell lines, H929 cells, 72 h, Cell TiterGlo, 10% FBS

Chain of Mcl-1 (Q07820 172-327): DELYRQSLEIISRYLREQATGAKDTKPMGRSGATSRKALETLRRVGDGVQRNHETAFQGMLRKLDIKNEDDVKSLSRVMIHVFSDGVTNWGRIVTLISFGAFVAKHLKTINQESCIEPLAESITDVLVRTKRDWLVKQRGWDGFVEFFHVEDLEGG

| Structure (SMILES) | Ki (Mcl-1) [nM] | GI50 [1, 2] [nM] | GI50 [1, 3] [nM] | GI50 ([1]; H929 cells, 72 h, Cell TiterGlo, 10% FBS, read-out: GI50 on cellular proliferation of H929 human cancer cell lines) [nM] |
| --- | --- | --- | --- | --- |
| Cc1cc(OCCCc2c3n(c4c(-c5c(C)nn(C)c5C)c(Cl)ccc24)[C@H](C)CN(c2ccc4c(c2)c(C(=O)O)cn4C)C3=O)cc(C)c1Cl [Example 171, (R)-5-(7-Chloro-10-(3-(4-chloro-3,5-dimethylphenoxy)propyl)-4-methyl-1-oxo-6-(1,3,5-trimethyl-1H-pyrazol-4-yl)-3,4-dihydropyrazino[1,2-a]indol-2(1H)-yl)-1-methyl-1H-indole-3-carboxylic acid] | < 1 | 1500 | – | – |
| Cc1cc(OCCCc2c3n(c4c(-c5c(C)nn(C)c5C)c(Cl)ccc24)[C@H](C)CN(c2cc(OCCN4CCCC4)cc4cc(C(=O)O)n(C)c24)C3=O)cc(C)c1Cl [Example 460, (R)-7-(7-Chloro-10-(3-(4-chloro-3,5-dimethylphenoxy)propyl)-4-methyl-1-oxo-6-(1,3,5-trimethyl-1H-pyrazol-4-yl)-3,4-dihydropyrazino[1,2-a]indol-2(1H)-yl)-1-methyl-5-(2-(pyrrolidin-1-yl)ethoxy)-1H-indole-2-carboxylic acid] | 1.7 | 420 | – | – |
| Cc1cc(OCCCc2c3n(c4c(-c5c(C)nn(C)c5C)c(Cl)ccc24)[C@H](C)CN(c2cccc4cc(C(=O)O)n(C(C)c5ccccn5)c24)C3=O)cc(C)c1Cl (stereo partly drawn) [Example 386, 7-((R)-7-Chloro-10-(3-(4-chloro-3,5-dimethylphenoxy)propyl)-4-methyl-1-oxo-6-(1,3,5-trimethyl-1H-pyrazol-4-yl)-3,4-dihydropyrazino[1,2-a]indol-2(1H)-yl)-1-(1-(pyridin-2-yl)ethyl)-1H-indole-2-carboxylic acid] | 3.2 | 3100 | – | – |
| Cc1cc(OCCCc2c3n(c4c(-c5c(C)nn(C)c5C)c(Cl)ccc24)[C@H](C)CN(c2cn(CCN4CCOCC4)c4cc(C(=O)O)ccc24)C3=O)cc(C)c1Cl [Example 292, (R)-3-(7-chloro-10-(3-(4-chloro-3,5-dimethylphenoxy)propyl)-4-methyl-1-oxo-6-(1,3,5-trimethyl-1H-pyrazol-4-yl)-3,4-dihydropyrazino[1,2-a]indol-2(1H)-yl)-1-(2-morpholinoethyl)-1H-indole-6-carboxylic acid] | < 1 | 690 | – | – |
| Cc1cc(N2C[C@@H](C)n3c(c(CCCOc4cc(C)c(Cl)c(C)c4)c4ccc(Cl)c(-c5c(C)nn(CCN6CCCC6)c5C)c43)C2=O)c2c(c1)cc(C(=O)O)n2C [Example 463, (R)-7-(7-Chloro-10-(3-(4-chloro-3,5-dimethylphenoxy)propyl)-6-(3,5-dimethyl-1-(2-(pyrrolidin-1-yl)ethyl)-1H-pyrazol-4-yl)-4-methyl-1-oxo-3,4-dihydropyrazino[1,2-a]indol-2(1H)-yl)-1,5-dimethyl-1H-indole-2-carboxylic acid] | 2.1 | 290 | – | – |
| Cc1cc(OCCCc2c3n(c4c(-c5c(C)nn(C)c5C)c(Cl)ccc24)[C@H](C)CN(c2cc(C(=O)O)c4cnn(C(C)C)c4c2)C3=O)cc(C)c1Cl [Example 131, 6-[(4R)-7-chloro-10-[3-(4-chloro-3,5-dimethyl-phenoxy)propyl]-4-methyl-1-oxo-6-(1,3,5-trimethylpyrazol-4-yl)-3,4-dihydropyrazino[1,2-a]indol-2-yl]-1-isopropyl-indazole-4-carboxylic acid] | < 1 | 1900 | – | – |
| Cc1cc(OCCCc2c3n(c4c(-c5c(C)nn(C)c5C)c(Cl)ccc24)[C@H](C)CN(c2cccc4cc(C(=O)O)[nH]c24)C3=O)cc(C)c1Cl [Example 242, 7-[(4R)-7-chloro-10-[3-(4-chloro-3,5-dimethyl-phenoxy)propyl]-4-methyl-1-oxo-6-(1,3,5-trimethylpyrazol-4-yl)-3,4-dihydropyrazino[1,2-a]indol-2-yl]-1H-indole-2-carboxylic acid] | < 1 | – | 1300 | – |
| Cc1cc(OCCCc2c3n(c4c(-c5c(C)nn(C)c5C)c(Cl)ccc24)[C@H](C)CN(c2ccc(F)c4c(C(=O)O)c[nH]c24)C3=O)cc(C)c1Cl [Example 438, (R)-7-(7-Chloro-10-(3-(4-chloro-3,5-dimethylphenoxy)propyl)-4-methyl-1-oxo-6-(1,3,5-trimethyl-1H-pyrazol-4-yl)-3,4-dihydropyrazino[1,2-a]indol-2(1H)-yl)-4-fluoro-1H-indole-3-carboxylic acid] | 1.1 | 2800 | – | – |
| Cc1cc(OCCCc2c3n(c4c(-c5c(C)nn(C)c5C)c(Cl)ccc24)[C@H](C)CN(c2cccc4cc(C(=O)O)n(Cc5ccccc5)c24)C3=O)cc(C)c1Cl [Example 241, 1-Benzyl-7-[(4R)-7-chloro-10-[3-(4-chloro-3,5-dimethyl-phenoxy)propyl]-4-methyl-1-oxo-6-(1,3,5-trimethylpyrazol-4-yl)-3,4-dihydropyrazino[1,2-a]indol-2-yl]indole-2-carboxylic acid] | < 1 | 420 | – | – |
| Cc1cc(N2C[C@@H](C)n3c(c(CCCOc4cc(C)c(Cl)c(C)c4)c4ccc(Cl)c(-c5c(C)ncnc5C)c43)C2=O)c2c(c1)c(C)c(C(=O)O)n2C [Example 339, (R)-7-(7-Chloro-10-(3-(4-chloro-3,5-dimethylphenoxy)propyl)-6-(4,6-dimethylpyrimidin-5-yl)-4-methyl-1-oxo-3,4-dihydropyrazino[1,2-a]indol-2(1H)-yl)-1,3,5-trimethyl-1H-indole-2-carboxylic acid] | < 1 | 320 | – | – |
| Cc1cc(OCCCc2c3n(c4c(-c5c(C)ncnc5C)c(Cl)ccc24)CCCN(c2ccnc4ccc(C(=O)O)cc24)C3=O)cc(C)c1Cl [Example 220, 4-[8-Chloro-11-[3-(4-chloro-3,5-dimethyl-phenoxy)propyl]-7-(4,6-dimethylpyrimidin-5-yl)-1-oxo-4,5-dihydro-3H-[1,4]diazepino[1,2-a]indol-2-yl]quinoline-6-carboxylic acid] | < 1 | 2000 | – | – |
| Cc1cc(OCCCc2c3n(c4c(-c5c(C)nc(CN6CCN(C)CC6)nc5C)c(Cl)ccc24)[C@H](C)CN(c2cn(C)c4ccc(C(=O)O)cc24)C3=O)cc(C)c1Cl [Example 396, (R)-3-(7-Chloro-10-(3-(4-chloro-3,5-dimethylphenoxy)propyl)-6-(4,6-dimethyl-2-((4-methylpiperazin-1-yl)methyl)pyrimidin-5-yl)-4-methyl-1-oxo-3,4-dihydropyrazino[1,2-a]indol-2(1H)-yl)-1-methyl-1H-indole-5-carboxylic acid] | 1.8 | < 200 | – | – |
| Cc1cc(OCCCc2c3n(c4c(-c5c(C)nn(C)c5C)c(Cl)ccc24)[C@H](C)CN(c2ccc4cc(C(=O)O)n(C)c4c2)C3=O)cc(C)c1Cl [Example 110, (R)-6-(7-Chloro-10-(3-(4-chloro-3,5-dimethylphenoxy)propyl)-4-methyl-1-oxo-6-(1,3,5-trimethyl-1H-pyrazol-4-yl)-3,4-dihydropyrazino[1,2-a]indol-2(1H)-yl)-1-methyl-1H-indole-2-carboxylic acid] | < 1 | 790 | – | – |
| Cc1cc(N2C[C@@H](C)n3c(c(CCCOc4cc(C)c(Cl)c(C)c4)c4ccc(Cl)c(-c5c(C)nn(C)c5C)c43)C2=O)c2c(c1)cc(C(=O)O)n2Cc1ccccn1 [Example 295, 7-[(4R)-7-chloro-10-[3-(4-chloro-3,5-dimethyl-phenoxy)propyl]-4-methyl-1-oxo-6-(1,3,5-trimethylpyrazol-4-yl)-3,4-dihydropyrazino[1,2-a]indol-2-yl]-5-methyl-1-(2-pyridylmethyl)indole-2-carboxylic acid] | < 1 | < 200 | – | – |
| Cc1cc(OCCCc2c3n(c4c(-c5c(C)nn(C)c5C)c(Cl)ccc24)[C@H](C)CN(c2cccc4c2c(C(=O)O)nn4C)C3=O)cc(C)c1Cl [Example 126, 4-[(4R)-7-chloro-10-[3-(4-chloro-3,5-dimethyl-phenoxy)propyl]-4-methyl-1-oxo-6-(1,3,5-trimethylpyrazol-4-yl)-3,4-dihydropyrazino[1,2-a]indol-2-yl]-1-methyl-indazole-3-carboxylic acid] | < 1 | – | 5100 | – |
| Cc1cc(OCCCc2c3n(c4c(-c5c(C)nn(C)c5C)c(Cl)ccc24)[C@H](C)CN(c2cn(C)c4ccc(C(=O)Nc5ccncc5)cc24)C3=O)cc(C)c1Cl [Example 283, 3-[(4R)-7-chloro-10-[3-(4-chloro-3,5-dimethyl-phenoxy)propyl]-4-methyl-1-oxo-6-(1,3,5-trimethylpyrazol-4-yl)-3,4-dihydropyrazino[1,2-a]indol-2-yl]-1-methyl-N-(4-pyridyl)indole-5-carboxamide] | 1.2 | 1200 | – | – |
| COCCOc1ccc(N2C[C@@H](C)n3c(c(CCCOc4cc(C)c(Cl)c(C)c4)c4ccc(Cl)c(-c5c(C)nn(C)c5C)c43)C2=O)c2c1cc(C(=O)O)n2C [Example 325, (M, R)-7-(7-Chloro-10-(3-(4-chloro-3,5-dimethylphenoxy)propyl)-4-methyl-1-oxo-6-(1,3,5-trimethyl-1H-pyrazol-4-yl)-3,4-dihydropyrazino[1,2-a]indol-2(1H)-yl)-4-(2-methoxyethoxy)-1-methyl-1H-indole-2-carboxylic acid] | < 1 | – | – | 290 |
| Cc1cc(OCCCc2c3n(c4c(-c5c(C)nn(C)c5C)c(Cl)ccc24)[C@H](C)CN(c2cccc4c2c(C(=O)O)cn4C)C3=O)cc(C)c1Cl [Example 182, 4-[(4R)-7-chloro-10-[3-(4-chloro-3,5-dimethyl-phenoxy)propyl]-4-methyl-1-oxo-6-(1,3,5-trimethylpyrazol-4-yl)-3,4-dihydropyrazino[1,2-a]indol-2-yl]-1-methyl-indole-3-carboxylic acid] | < 1 | 1500 | – | – |
